# Laboratory results reported in patent US20070275382A1, “Biomarkers for the Efficacy of Somatostatin Analogue Treatment” (priority 2003, published 2007).
# *1 amine or outer side, *2 acyl side, *3 side chain or, on linkers, in order; H or OH if unused. Where a SMILES comes first, the peptide text is derived from it. Side-chain parts run from the residue outwards. [ ]: non-standard residue; d: D form. The star is where a group is joined. Ethylenediamine = C(CN[*:2])N[*:1]; Hyp = O=C(O)[CH]1C[CH](O)CN1; Phg = N[CH](C(=O)O)c1ccccc1; CO = O=C([*:1])[*:2]; Bn = c1ccc(C*)cc1
# System: Thyroid
# Experiment: Microarray gene expression profiling (HG-U95A), thyroid
# Assay type: in vivo, cynomolgus monkeys
# Protocol: Origin of tissue and processing. Male and female cynomolgus monkeys received subcutaneously pasireotide (100 μg/animal/day) or the vehicle for 14 days. On day 15, all animals were sacrificed and tissues for RNA extraction were immediately snap-frozen and kept at −80° C. until processing.
# RNA expression profiling was conducted by means of the HG-U95A gene expression probe array (Affymetrix; Santa Clara, Calif. USA), containing more than 12,600 probe sets interrogating primarily full-length human genes and also some control probe sets. The experiment was conducted according to the recommendations of the manufacturer. Briefly, total RNA was obtained by acid guanidinium thiocyanate-phenol-chloroform extraction (Trizol®, Invitrogen Life Technologies, San Diego, Calif. USA) from each frozen tissue section. The total RNA was then purified on an affinity resin (Rneasy®, Qiagen) and quantified. Double stranded cDNA was synthesized with a starting amount of approximately 5 μg full-length total RNA using the Superscript® Choice System (Invitrogen Life Technologies, Carlsbad, Calif. USA) in the presence of a T7-(dT)24 DNA oligonucleotide primer. Following synthesis, the cDNA was purified by phenol/chloroform/isoamyl alcohol extraction and ethanol precipitation. The purified cDNA was then transcribed in vitro using the BioArray® High Yield RNA Transcript Labeling Kit (ENZO, Farmingdale, N.Y. USA) in the presence of biotinylated ribonucleotides form biotin labelled cRNA. The labelled cRNA was then purified on an affinity resin (Rneasy®, Qiagen), quantified and fragmented. An amount of approximately 10 μg labelled cRNA was hybridized for 16 hours at 45° C. to an expression probe array. The array was then washed and stained twice with streptavidin-phycoerythrin (Molecular Probes,) using the GeneChip® Fluidics Workstation 400 (Affymetrix, Santa Clara, Calif. USA). The array was then scanned twice using a confocal laser scanner (GeneArray® Scanner, Agilent, Palo Alto, Calif. USA) resulting in one scanned image. This resulting “.dat-file” was processed using the MAS4 program (Affymetrix) into a “.cel-file”. The “.cel file” was captured and loaded into the Affymetrix GeneChip® Laboratory Information Management System (LIMS). The LIMS database is connected to a UNIX Sun Solaris server through a network filing system that allows for the average intensities for all probes cells (CEL file) to be downloaded into an Oracle database (NPGN). Raw data was converted to expression levels using a “target intensity” of 150. The data were evaluated for quality control and loaded in the GeneSpring® software 4.2.4 (Silicon Genetics, Calif. USA) for analysis.
# On the human Affymetrix HGU95Av2 chip, probe sets for individual genes contain 20 oligonucleotide pairs, each composed of a “perfect match” 25-mer and a “mismatch” 25-mer differing from the “perfect” match oligonucleotide at a single base. After probe labelling, hybridization, and laser scanning, the expression level was estimated by averaging the differences in signal intensity measured by oligonucleotide pairs of a given probe (AvgDiff value). The fold changes and directions were calculated for selected genes, from the differences of the AvgDiff values between controls and treated.
# To identify genes that were impacted by pasireotide, the dataset was initially filtered to exclude in a first wave of analysis, genes whose values were systematically in the lower expression ranges where the experimental noise is high (at least 80 in a number of experiments corresponding to the smallest number of replicas of any experimental point). In a second round of selection a threshold p-value of 0.05 (based on a t-test) identified differences between treated and control based on a two component error model (Global Error Model) and, whenever possible, with a stepdown correction for multi-hypothesis testing (Benjamini and Hochberg false discovery rate). […]
# [1] = ↑ increase, treated vs controls
# [2] = ↓ decrease, treated vs controls
structure (smiles),measurement,setting,value
"NCCCCC1NC(=O)C(Cc2c[nH]c3ccccc23)NC(=O)C(c2ccccc2)NC(=O)C2CC(OC(=O)NCCN)CN2C(=O)C(Cc2ccccc2)NC(=O)C(Cc2ccc(OCc3ccccc3)cc2)NC1=O (stereo not drawn) [Pasireotide, cyclo[4-(NH2—C2H4—NH—CO—O)Pro-Phg-DTrp-Lys-Tyr(4-Bzl)-Phe]] (cyclo(F[Hyp]([CO-Ethylenediamine])[Phg]WKY(Bn)); configuration not given here)","IGF-1 expression level, AvgDiff (range)",0.1 mg/animal/14day,58 (20 to 114)
same,Endothelial differentiation-related factor 1 RNA expression change,"direction only, treated vs controls",related factor 1 ↑
same,CD2 antigen (cytoplasmic tail)-binding protein 2 RNA expression fold change,[1],↑ x3.5
same,"Cadherin 13, H-cadherin (heart) RNA expression fold change",[1],↑ x2
same,Cannabinoid receptor 2 (macrophage) RNA expression fold change,[1],↑ x3
same,"GABA (B) receptor 1, isoform a precursor RNA expression fold change",[1],↑ x2.5
same,IFNα-inducible protein 27 RNA expression fold change,[1],protein 27 ↑ x3
same,IFNγ-inducible protein 30 RNA expression fold change,[1],↑ x3.5
same,PDGF-associated Protein RNA expression fold change,[1],Protein ↑ x2
same,PDGFR β RNA expression fold change,[1],↑ x2
same,Phosphatidyl ethanolamine N-methyl-transferase RNA expression fold change,[1],↑ x2
same,"Pro-platelet basic protein (includes platelet basic protein, β-thromboglobulin, connective tissue-activating peptide III, neu) 2 RNA expression fold change",[1],2 ↑ x3.5
same,RANTES RNA expression fold change,[1],↑ x10.5
same,"Solute carrier family 21 (PG transporter), member 2 RNA expression fold change",[1],member 2 ↑ x2
same,"TNF (ligand) superfamily, member 10 RNA expression fold change",[1],↑ x2
same,Thrombospondin 2 RNA expression fold change,[1],spondin 2 ↑ x2
same,VWF precursor RNA expression fold change,[1],precursor ↑ x2
same,"ATPase, Ca++ transporting, cardiac muscle, fast twitch 1 RNA expression fold change",[2],↓ x4.5
same,Adenylate cyclase activating polypeptide precursor RNA expression fold change,[2],↓ x1.5
same,"Adrenergic, α-2C-, receptor RNA expression fold change",[2],↓ x2.5
same,Bcl-2 binding component 3 RNA expression fold change,[2],↓ x2
same,Brain cannabinoid receptor 1 RNA expression fold change,[2],↓ x2
same,"CD2 antigen (p50), sheep red blood cell receptor RNA expression fold change",[2],↓ x7.5
same,COL1A1 and PDGFB fusion transcript RNA expression fold change,[2],transcript ↓ x6
same,Calcium/calmodulin dependent protein kinase 1 RNA expression fold change,[2],↓ x2
same,Calcium/calmodulin-dependent PK IV RNA expression fold change,[2],IV ↓ x7.5
same,Calmodulin-dependent PK IV (CaM-kinase IV) RNA expression fold change,[2],IV) ↓ x7.5
same,Cdc-like 5 (cholinesterase-related cell division controller) RNA expression fold change,[2],↓ x2
same,"Cdk 5, regulatory subunit 1 (p35) RNA expression fold change",[2],↓ x5
same,"Chemokine (C-X-C motif), receptor 4 (fusin) RNA expression fold change",[2],(fusin) ↓ x3
same,Cholecystokinin B receptor RNA expression fold change,[2],B receptor ↓ x3
same,Cyclin B2 RNA expression fold change,[2],↓ x2.5
same,"DAG 1 kinase, α (80 kD) RNA expression fold change",[2],↓ x4
same,"EGF-like module containing, mucin-like, hormone receptor-like sequence 1 RNA expression fold change",[2],↓ x5
same,FKBP-associated protein RNA expression fold change,[2],protein ↓ x2.5
same,Flt3 ligand RNA expression fold change,[2],Flt3 ligand ↓ x4.5
same,Fms-related tyrosine kinase 1(VEGF/vascular permeability factor receptor) RNA expression fold change,[2],↓ x2
same,"GABA (A) receptor, γ2 precursor RNA expression fold change",[2],↓ x1.5
same,Gastric inhibitory polypeptide 1 receptor RNA expression fold change,[2],receptor ↓ x2
same,"Glutamate receptor, metabotropic 2 precursor RNA expression fold change",[2],precursor ↓ 3.5
same,Growth arrest-specific 1 RNA expression fold change,[2],↓ x2.5
same,IFNγ responsive transcript RNA expression fold change,[2],transcript ↓ x1.5
same,IGF-1 RNA expression fold change,[2],IGF-1 ↓ x1.5
same,IL2-inducible T-cell kinase RNA expression fold change,[2],cell kinase ↓ x12
same,IL9 receptor RNA expression fold change,[2],↓ x2
same,IP3 receptor type 3 RNA expression fold change,[2],↓ x1.5
same,"K+ voltage-gated channel, shaker-related subfamily, member 3 RNA expression fold change",[2],↓ x4.5
same,LTB4 receptor (chemokine receptor-like 1) RNA expression fold change,[2],↓ x1.5
same,Lymphocyte specific protein tyrosine kinase RNA expression fold change,[2],↓ x4
same,P56lck RNA expression fold change,[2],P56lck ↓ x18
same,PDGFR α RNA expression fold change,[2],↓ x3
same,PIP 5-phosphatase type IV RNA expression fold change,[2],x3
same,"PLC, γ 1 (formerly subtype 148) RNA expression fold change",[2],148) ↓ x2
same,RAG1 RNA expression fold change,[2],RAG1 ↓ x18
same,RAG2 RNA expression fold change,[2],RAG2 ↓ x5
same,"SH2 domain protein 1A, Duncan's disease (lymphoproliferative syndrome) RNA expression fold change",[2],↓ x7.5
same,Signalling lymphocytic activation molecule RNA expression fold change,[2],molecule ↓ x4.5
same,TCR ζ chain precursor RNA expression fold change,[2],precursor ↓ x5.5
same,TSHR RNA expression fold change,[2],TSHR ↓ x2
same,"Transcription factor 7 (T-cell specific, HMG-box) RNA expression fold change",[2],box) ↓ x16.5
same,c-AMP responsive element binding protein 1 RNA expression fold change,[2],protein 1 ↓ x2
